Reference: the OligoGym collection
Bases are written 5' to 3'; sugars and linkages follow in the same order, as letters with counts (s phosphorothioate, o phosphodiester; PS: all linkages phosphorothioate). The collection does not say whether C is 5-methylated. l = locked nucleic acid (LNA); d = 2'-deoxy (DNA)

Each sequence was assayed against Tau (assay: rat primary cortical neurons, FLIPR, 25 uM ASO).

Sequence	calcium oscillation score
TCAACTGGTTTGTAGA (sugars l3 d10 l3, PS)	110 % of control
TCAACTGGTTTGTAGACTAT (sugars l3 d14 l3, PS)	29.9 % of control
TCAATTCTCATTTCAACCTT (sugars l2 d15 l3, PS)	70.7 % of control
TCAATTTCCCTGTTAAT (sugars l4 d11 l2, PS)	53.4 % of control
TCAATTTGGAAAGATGAAAT (sugars l3 d14 l3, PS)	0 % of control
TCACAAACCCTGCTTGGCCA (sugars l3 d14 l3, PS)	27.6 % of control
TCACAACCCAAGATTCCC (sugars l2 d14 l2, PS)	69.5 % of control
TCACACACATGATTATC (sugars l4 d9 l4, PS)	78.5 % of control
TCACCACTTTAATCTGC (sugars l2 d12 l3, PS)	45.7 % of control
TCACCACTTTAATCTGCC (sugars l2 d14 l2, PS)	69 % of control
TCACTCATGCCTTAATC (sugars l4 d11 l2, PS)	62 % of control
TCACTTTACACATTAAATTT (sugars l4 d12 l4, PS)	62.5 % of control
TCAGATTTAATTCTCAC (sugars l4 d9 l4, PS)	50.7 % of control
TCAGATTTTACTTCCACC (sugars l2 d13 l3, PS)	57.5 % of control
TCAGCTAAGACCCTCAGGTT (sugars l3 d14 l3, PS)	33 % of control
TCAGCTAGCGTGGCGA (sugars l3 d10 l3, PS)	75.9 % of control
TCAGCTCTTCCATAAGCAGG (sugars l3 d14 l3, PS)	38.5 % of control
TCAGCTTGTGGGTTTCAATC (sugars l3 d14 l3, PS)	13.3 % of control
TCAGGTCAACTGGTTT (sugars l3 d10 l3, PS)	95.9 % of control
TCAGGTCAACTGGTTTGTAG (sugars l3 d14 l3, PS)	0 % of control
TCAGGTCTGGCATGG (sugars l3 d9 l3, PS)	0 % of control
TCAGTCCTAATCCTGT (sugars l3 d10 l3, PS)	53.3 % of control
TCATAAATGACTATACTTAT (sugars l3 d14 l3, PS)	80.6 % of control
TCATAGTCACTCTGGT (sugars l3 d10 l3, PS)	85.7 % of control
TCATCACCAAGTCCCAA (sugars l2 d12 l3, PS)	61.7 % of control
TCATCGCTTCCAGTCC (sugars l3 d10 l3, PS)	19.2 % of control

Sequence	calcium oscillation score
TCATCTTTTCTAGAAC (sugars l4 d8 l4, PS)	77.3 % of control
TCATCTTTTCTAGAACC (sugars l4 d10 l3, PS)	70.9 % of control
TCATCTTTTCTAGAACCC (sugars l3 d13 l2, PS)	48.4 % of control
TCATGAGCACTAACTCTAAG (sugars l3 d14 l3, PS)	35.7 % of control
TCATTCAGCCAATCAC (sugars l4 d9 l3, PS)	52.4 % of control
TCATTCAGCCAATCACA (sugars l3 d11 l3, PS)	45.6 % of control
TCATTTACCAATTATCTTTA (sugars l4 d13 l3, PS)	48.8 % of control
TCATTTTTCTCAAGCTCC (sugars l2 d14 l2, PS)	55.8 % of control
TCATTTTTTATTCATAACTT (sugars l4 d12 l4, PS)	62.3 % of control
TCCAAAACATTCTCACCAAA (sugars l4 d14 l2, PS)	85.7 % of control
TCCAAACTTTTACTCTG (sugars l3 d10 l4, PS)	31.2 % of control
TCCAAAGCATCAAATCC (sugars l3 d11 l3, PS)	85.5 % of control
TCCAAGTCAATGCCTGGCTT (sugars l3 d14 l3, PS)	18.1 % of control
TCCAATACTAGATCTA (sugars l4 d9 l3, PS)	71.9 % of control
TCCACAAACCAACTCAA (sugars l3 d10 l4, PS)	99.5 % of control
TCCACAAACCAACTCAAC (sugars l4 d12 l2, PS)	95.9 % of control
TCCACAAACCAACTCAACA (sugars l2 d13 l4, PS)	102 % of control
TCCACAAACCAACTCAACAT (sugars l2 d15 l3, PS)	75.2 % of control
TCCACCCTTACACATA (sugars l3 d11 l2, PS)	48.8 % of control
TCCACCCTTACACATAG (sugars l3 d12 l2, PS)	40.4 % of control
TCCACTTAGACACTCTT (sugars l2 d11 l4, PS)	50 % of control
TCCACTTAGACACTCTTT (sugars l3 d13 l2, PS)	37.5 % of control
TCCAGCCATATTTCAACTCT (sugars l3 d14 l3, PS)	45.2 % of control
TCCAGCTACTTACCCAA (sugars l2 d12 l3, PS)	89 % of control
TCCAGGGACCCAATCTTCGA (sugars l3 d14 l3, PS)	0 % of control
TCCAGTCCCGTCTTTG (sugars l3 d10 l3, PS)	11.5 % of control

Sequence	calcium oscillation score
TCCATCCTAAGTCAAC (sugars l3 d9 l4, PS)	65.3 % of control
TCCATTAATTTAGCCA (sugars l4 d10 l2, PS)	54.1 % of control
TCCATTAGTCTCTTCA (sugars l3 d11 l2, PS)	65.1 % of control
TCCATTCCCTCCAGAACCAT (sugars l3 d14 l3, PS)	61.9 % of control
TCCATTTTCACTGTTCA (sugars l3 d12 l2, PS)	87.7 % of control
TCCATTTTCTGACTCTA (sugars l3 d12 l2, PS)	40.4 % of control
TCCCAAATTCCTCATAATCC (sugars l2 d16 l2, PS)	64.5 % of control
TCCCAACTCTTTGAACAC (sugars l3 d13 l2, PS)	83.5 % of control
TCCCACCATCCACGCTC (sugars l2 d13 l2, PS)	64.7 % of control
TCCCAGCGTGATCT (sugars l3 d8 l3, PS)	3.83 % of control
TCCCAGCGTGATCTTCCATC (sugars l4 d11 l5, PS)	55.4 % of control
TCCCAGCGTGATCTTCCATC (sugars l5 d11 l4, PS)	85.2 % of control
TCCCAGCGTGATCTTCCATC (sugars ldlllddddddddddlldll, PS)	74.5 % of control
TCCCAGCGTGATCTTCCATC (sugars lldllddddddddddlldll, PS)	106 % of control
TCCCATCACTAGCACTA (sugars l2 d13 l2, PS)	32.8 % of control
TCCCCACCCAAACTCCA (sugars l2 d13 l2, PS)	80.8 % of control
TCCCCACCCAAACTCCAA (sugars l2 d14 l2, PS)	76.5 % of control
TCCCCATTTATCCTTCA (sugars l2 d13 l2, PS)	65.9 % of control
TCCCCATTTATCCTTCAT (sugars l2 d13 l3, PS)	77.3 % of control
TCCCCCAAAATATCTCA (sugars l2 d12 l3, PS)	87.1 % of control
TCCCCCAAAATATCTCAA (sugars l3 d13 l2, PS)	53.9 % of control
TCCCGTCTTTGCTTTTACTG (sugars l3 d14 l3, PS)	3.7 % of control
TCCCTAATCCCCAAAGA (sugars l2 d13 l2, PS)	53.9 % of control
TCCCTTAACAATATGCT (sugars l2 d11 l4, PS)	75.1 % of control
TCCCTTAATTTCAC (sugars l3 d8 l3, PS)	133 % of control
TCCCTTAATTTCACC (sugars l3 d9 l3, PS)	80.5 % of control
